From ChEMBL document CHEMBL3997819, “Synthesis and biological evaluation of heterocyclic analogues of pregnenolone as novel anti-osteoporotic agents” (2017)
Active and inactive are the calls of the source. The calls are words filed in the database; no cut-off is given here.

Assays:
[1] = system: Calvarial osteoblast; assay: Antiosteoporotic activity in mouse calvarial osteoblasts assessed as enhancement in ALP activity at 1 pM to 1 uM after 48 hrs by PNPP substrate-based spectrophotometric method relative to control; type: functional, cell-based
[2] = system: Calvarial osteoblast; assay: Antiosteoporotic activity in mouse calvarial osteoblasts assessed as enhancement in ALP activity at 100 pM after 48 hrs by PNPP substrate-based spectrophotometric method relative to control; type: functional
[3] = system: Calvarial osteoblast; assay: Antiosteoporotic activity in mouse calvarial osteoblasts assessed as upregulation of OCN mRNA levels at 1 pM measured at 24 hrs by real-time quantitative PCR method relative to control; type: functional
[4] = system: Calvarial osteoblast; assay: Antiosteoporotic activity in mouse calvarial osteoblasts assessed as enhancement in ALP activity at 1 nM to 1 uM after 48 hrs by PNPP substrate-based spectrophotometric method relative to control; type: functional, cell-based
[5] = system: Calvarial osteoblast; assay: Antiosteoporotic activity in mouse calvarial osteoblasts assessed as increase in mineral nodule formation at 1 to 100 pM after 21 days by alizarin red-S dye-based optical densitometry relative to control; type: functional, cell-based
[6] = system: Calvarial osteoblast; assay: Antiosteoporotic activity in mouse calvarial osteoblasts assessed as upregulation of Runx-2 mRNA levels at 1 pM measured at 24 hrs by real-time quantitative PCR method relative to control; type: functional
[7] = system: Calvarial osteoblast; assay: Antiosteoporotic activity in mouse calvarial osteoblasts assessed as upregulation of BMP-2 mRNA levels at 1 pM measured at 24 hrs by real-time quantitative PCR method relative to control; type: functional
[8] = system: Calvarial osteoblast; assay: Antiosteoporotic activity in mouse calvarial osteoblasts assessed as enhancement in ALP activity at 1 pM after 48 hrs by PNPP substrate-based spectrophotometric method relative to control; type: functional

C[C@]12CC[C@H]3[C@@H](CC=C4C[C@@H](O)CC[C@@]43C)[C@@H]1CC[C@@H]2c1ccc2cc(Br)cc(Br)c2n1
Activity [1]: Active

CC(=O)O[C@H]1CC[C@@]2(C)C(=CC[C@H]3[C@@H]4CC[C@H](C(C)=O)[C@@]4(C)CC[C@@H]32)C1
Activity [1]: Active

C[C@]12CC[C@H]3[C@@H](CC=C4C[C@@H](O)CC[C@@]43C)[C@@H]1CC[C@@H]2c1ccc2ccccc2n1
Activity [2]: 85% | fold change (FC) [3]: 3 | Activity [4]: Active | Activity [5]: Active | fold change (FC) [6]: 1.5 | fold change (FC) [7]: 2 | Activity [8]: 100%

C/C(=N\O)[C@H]1CC[C@H]2[C@@H]3CC=C4C[C@@H](O)CC[C@]4(C)[C@H]3CC[C@]12C
Activity [1]: Active
